What all share (assay type): cell-based
The test system of one test is KG-1. Description: Long term proliferation, InCell (Table 3C), KG-1. The following applies: Homo sapiens, KG-1, InCell. On the procedure: (§1) Compounds of invention are tested in the 5 suspension lines by 14-day long-term proliferation assay.
(§2) The compound is tested in 10-pt dose titration (client will determine the starting concentration and the dilution scheme) and the final DMSO concentration is kept at 0.2%.
(§3) Vehicle and media control are also included. All treatments are done in triplicate.
(§4) • 1) On Day 0, in a flat bottom 96-well plate, add 100 μL of cells per well at the densities optimized. • 2) Prepare compounds in DMSO at 500× final concentration. Dilute the compounds with DMSO at the dilution. • 3) Dilute the compounds in media at 3×final concentration. Add 50 μL of compound or DMSO at 3× final concentration to each well. Final volume in each well is 150 μL, and final concentration of DMSO is 0.2%. Also include 3 untreated control wells, by adding 50 μL of media alone. 4) Incubate plates for 96 hours. • 5) Count the cells using the Acumen, with capabilities for 96-well plates. Pipette cells up and down to mix in each well, and add desired volume of cells to a new flat bottom poly-D-lysine 96-well plate. Add Calcein AM at 1 μM final concentration. Let cells sit at RT for 10 mins followed by a quick spin to get cells settled on the bottom of the wells. Incubate the plate for additional 40 mins in the incubator. Take out the plate and read by Acumen. Calculate the cell numbers taken into account the dilution factors. • 6) Split the master plate. To do this take the total viable cell count calculated using step 5). Take the average of the replicates for each dose in order to be used in splitting the cells. • 7) Use a 96 well V-bottom plate to spin down the cells to remove old media and compound to split the cells. Based on the split ratio place the proper amount of media and cells into the V-bottom plate, and spin the plate at 1100 rpm for 5 minutes. • 8) Following the spin remove the media, careful not to disturb the cellpellet. • 9) Re-suspend pellet in 100 μL fresh media, and add to a new 96-well flat bottom plate. • 10) Add fresh compound, in the same manner as Step 3). • 11) Incubate plates for 72 hours. Repeat steps 5)-10) on Day 7. • 12) Incubate plates for 96 hours. Repeat Step 5)-10) on Day 11. • 13) Incubate 72 hours and repeat step 5) to take a final count. • 14) Data Analysis
(§5) To calculate growth for days 4, 7, 11, and 14: • Calculate the split factor for day 4 to 7, day 7 to 11, and day 11-14.

In the next test the test system is OCI-AML-3. Description: Long term proliferation, InCell (Table 3C), OCI-AML-3. The following applies: Homo sapiens, OCI-AML-3, InCell. On the procedure:
as §1, §2, §3, §4, §5

The subject of a further test is MV4-11. Description: Long term proliferation, Cell Titer-Glo (Table 3B), MV4-11. To be noted: Homo sapiens, MV4-11, Cell Titer-Glo.
Setting [1] is: 96 h, Day 4, read-out: Day 4 IC50.
The mark [2] stands for this setting: 264 h, Day 11, read-out: Day 11 IC50.

Where two headings read alike, the source gives them in different places.

For the molecule `O=C(Nc1ccc(-c2cc3c(N4CCOCC4)ncnc3[nH]2)cc1)Nc1cc(-c2cccnc2)n[nH]1` [Compound 9, 1-{4-[4-(morpholin-4-yl)-7H-pyrrolo[2,3-d]pyrimidin-6-yl]phenyl}-3-[3-(pyridin-3-yl)-1H-pyrazol-5-yl]urea], the IC50 in the test on KG-1 (setting [1]) is 3310 nM; in the test on KG-1 (setting [2]) it was 2290 nM; with OCI-AML-3 (setting [1]), 370 nM; in the test with OCI-AML-3 (setting [2]) it was 720 nM; with MV4-11 (setting [1]), 740 nM; in the test on MV4-11 (168 h, Day 7, read-out: Day 7 IC50), 380 nM. For the same molecule, the IC50 in the test on MV4-11 (setting [2]) is 320 nM; in the test on MV4-11 (336 h, Day 14, read-out: Day 14 IC50), 210 nM.

Source of the values: patent publication US20240140953A1, “INHIBITORS OF MENIN-MLL INTERACTION” (BIOMEA FUSION, INC., priority 2018, published 2024).
